Test results from US20240197733A1, “A GABA RECEPTOR MODULATOR FOR USE IN THE TREATMENT OF PAIN” (SANIONA A/S, priority 2021, published 2024).

Experiments:
[1] = system: electrocutaneous stimulation-induced facial pain rodent model; test: ES-induced facial pain model, acute treatment, overall conclusion (mechanical and thermal tests); type: in vivo, Sprague-Dawley rats; conditions: 1, 3 and 10 mg/kg po
Text: The electrocutaneous stimulation-induced facial pain rodent model is a reproducible orofacial pain model in which depilated cheek area of rats are repeatedly subjected to electrical stimulation. Repeated electrical stimulation at low intensities produces craniofacial pain that mimics the behavioral characteristics of TN such as development of mechanical and thermal allodynia at cheeks despite no visible edema, swelling or excessive injury and tissue damage. Male wild type, Sprague-Dawley rats (Charles River Laboratories) born in-house at […] Research Laboratory between May 24, 2020 to May 28, 2020. […] Compound 1, vehicle and Carbamazepine was administered perorally in doses of 1, 3, and 10 mg/kg (Compound 1) or 30 mg/kg (carbamazepine) and drug effects on pain thresholds were evaluated 2- and 4 hours after drug administration by assessment of mechanical- (von Frey) and thermal hypersensitivity (heat- and cold stimulation respectively). Decrease in ES-induced pain threshold was evaluated 22 hours following electrical stimulation of the depilated left cheek area (between the eye and ear ridge, this is a receptive field of trigeminal nerve) of each rat and was manifested as facial withdrawal following application of Von Frey filaments for mechanical allodynia and a heat lamp and acetone test for thermal hyperalgesia and allodynia respectively. […]

[2] = system: electrocutaneous stimulation-induced facial pain rodent model; test: ES-induced facial pain model, prophylactic treatment, overall conclusion (mechanical and thermal tests); type: in vivo, Sprague-Dawley rats; conditions: po
Protocol: Unless stated otherwise, the same materials, methods, and provisions of Example 1 were applied to Example 2. The experimenter assessing the behavioral responses to drug administration is blinded to the drug treatment to the animals. Each treatment group is coded according the scheme below: • A. Vehicle (5% DMSO+30% HPBCD): 10 ml/kg • B. Compound 1: 0.3 mg/kg • C. Compound 1: 1 mg/kg • D. Compound 1: 3 mg/kg • F. Compound 1: 3 mg/kg—acute Second baseline measurement was carried out similarly to day 1, For each animal, the average of the two baseline nociceptive measurements was calculated within each pain modality (mechanical, heat- and cold pain), and used as baseline (“Baseline” point on figures). Then all rats in the above respective group (A-D) are given treated as mentioned. Group F received vehicle treatment. Treatment is continued once daily to each group same as Day 2 All rats were treated with respective treatment as per day 3-7. After 1 hr of treatment, each rat was subjected to 1 hr of electrocutaneous stimulation at depilated cheek (0.4 mA intensity, 10 ms duration, 1 s inter-pulse interval). […] Treatment effects on pain thresholds were evaluated 2- and 4 hours after administration by assessing mechanical- (Von Frey) and thermal (heat and cold) withdrawal threshold.

[3] = target: GABAA receptors containing the a5 subunit (Homo sapiens, UniProt P18507+P31644); conditions: cited from earlier work
GABAA receptors containing the a5 subunit, sequence (P31644 32-462): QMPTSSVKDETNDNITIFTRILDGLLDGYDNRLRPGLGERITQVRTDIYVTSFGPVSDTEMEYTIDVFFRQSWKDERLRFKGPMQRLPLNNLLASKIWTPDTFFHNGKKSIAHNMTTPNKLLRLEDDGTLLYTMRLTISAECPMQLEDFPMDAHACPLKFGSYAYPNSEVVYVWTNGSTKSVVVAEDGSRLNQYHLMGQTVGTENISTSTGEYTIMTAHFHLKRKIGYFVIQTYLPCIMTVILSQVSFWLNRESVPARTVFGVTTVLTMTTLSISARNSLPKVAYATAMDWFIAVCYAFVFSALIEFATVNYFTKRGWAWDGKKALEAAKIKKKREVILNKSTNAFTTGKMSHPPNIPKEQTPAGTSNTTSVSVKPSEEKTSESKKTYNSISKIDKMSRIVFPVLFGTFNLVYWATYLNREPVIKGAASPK
GABAA receptors containing the a5 subunit, sequence (P47870 25-512 partner limits assumed): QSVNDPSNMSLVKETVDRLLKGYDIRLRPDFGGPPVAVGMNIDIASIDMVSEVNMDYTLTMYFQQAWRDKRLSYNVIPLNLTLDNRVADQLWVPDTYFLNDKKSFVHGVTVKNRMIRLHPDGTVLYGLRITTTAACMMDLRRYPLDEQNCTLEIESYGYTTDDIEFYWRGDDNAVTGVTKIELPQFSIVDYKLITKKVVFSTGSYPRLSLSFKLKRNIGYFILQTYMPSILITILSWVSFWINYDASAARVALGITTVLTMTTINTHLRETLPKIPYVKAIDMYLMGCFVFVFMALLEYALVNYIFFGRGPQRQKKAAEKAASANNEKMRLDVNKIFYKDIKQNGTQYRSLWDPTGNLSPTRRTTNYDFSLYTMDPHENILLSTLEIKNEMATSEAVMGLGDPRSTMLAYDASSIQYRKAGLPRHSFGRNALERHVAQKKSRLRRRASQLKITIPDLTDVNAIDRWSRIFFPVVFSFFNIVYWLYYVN
GABAA receptors containing the a5 subunit, sequence (P18507 40-475): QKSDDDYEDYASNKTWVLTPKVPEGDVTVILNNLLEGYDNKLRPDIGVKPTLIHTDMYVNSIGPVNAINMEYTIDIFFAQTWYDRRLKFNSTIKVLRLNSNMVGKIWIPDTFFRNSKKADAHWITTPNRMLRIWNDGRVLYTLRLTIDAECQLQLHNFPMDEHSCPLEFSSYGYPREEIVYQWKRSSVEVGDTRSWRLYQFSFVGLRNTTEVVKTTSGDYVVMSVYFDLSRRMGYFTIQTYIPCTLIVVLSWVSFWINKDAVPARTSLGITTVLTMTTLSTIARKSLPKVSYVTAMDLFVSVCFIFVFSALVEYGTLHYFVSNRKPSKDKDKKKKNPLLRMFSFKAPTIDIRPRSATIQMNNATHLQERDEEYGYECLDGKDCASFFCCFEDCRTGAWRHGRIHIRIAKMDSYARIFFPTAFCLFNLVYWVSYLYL

COc1ncc(-c2cccc(-n3cnc4cc(C(C)(C)O)cnc43)c2)c(OC)n1 [Compound 1, 2-(3-(3-(2,4-dimethoxypyrimidin-5-yl)phenyl)-3H-imidazo[4,5-b]pyridin-6-yl)propan-2-ol]
analgesic effects (overall) [1]: significant analgesic effects in a dose dependent manner
analgesic effect compared with 10 mg/kg acute dose of Compound 1 or 30 mg/kg of Carbamazepine ([2]; once daily dose of 3 mg/kg, prophylactic): same analgesic effect
development of ES-induced sensitization (hypersensitivity to mechanical and thermal stimulus) ([2]; prophylactic treatment for 7 days, once daily dose): significantly reduced the development of ES-induced sensitization of the trigeminal sensory system
positive allosteric modulation of GABAA receptors containing the a5 subunit [3]: to a minor extent
